DC50, Dmax and IC50 data for 19 compounds are collected here from EP4763839A1 (Pamplona Therapeutics (Shenzhen) Co., Ltd., priority 2023, dated 2025).

In general, DC50 refers to the concentration giving 50% degradation. One may read the Dmax as the largest share of the target that was removed. Usually IC50 stands for the concentration that gives 50% inhibition. A higher IC50 goes with weaker potency.

One assay has as its target T1, IRAK4 (Homo sapiens, UniProt Q9NWZ3).
T1 sequence (Q9NWZ3 1-460): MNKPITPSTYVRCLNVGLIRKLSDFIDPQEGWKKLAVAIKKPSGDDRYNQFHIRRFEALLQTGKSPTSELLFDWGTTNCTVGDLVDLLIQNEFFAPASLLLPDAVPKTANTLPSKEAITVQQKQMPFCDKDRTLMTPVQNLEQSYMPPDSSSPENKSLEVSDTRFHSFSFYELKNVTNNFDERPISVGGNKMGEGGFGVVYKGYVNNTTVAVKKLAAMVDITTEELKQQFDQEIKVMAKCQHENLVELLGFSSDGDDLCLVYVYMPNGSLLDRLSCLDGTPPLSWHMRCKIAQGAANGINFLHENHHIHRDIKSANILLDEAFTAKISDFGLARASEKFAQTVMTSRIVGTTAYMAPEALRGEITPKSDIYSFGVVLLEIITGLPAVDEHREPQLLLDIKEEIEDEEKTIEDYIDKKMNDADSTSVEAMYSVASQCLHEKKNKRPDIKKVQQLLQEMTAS
As to the kind of experiment: Degradation of IRAK4 in THP1 cells, Western blot. Format: cell-based. Set-up: Degradation of IRAK4 in THP1 by compound; host or cells: THP-1. Particulars: THP-1 cells, 24 hours of incubation; for DC50: IRAK4 protein by Western blot, read-out: DC50; for Dmax: maximum degradation rate, read-out: Dmax. In short, it runs like this: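 Degradation rate derived from densitometry of IRAK4 bands versus DMSO-treated controls. Read-out: anti-IRAK4 immunoblot (10% gel, 40 μg total protein per lane, BCA-normalised) of lysates from THP1 cells incubated with compound for 24 h.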
In general terms: A western blot detects proteins with antibodies after separation by electrophoresis.

Another assay relates to IL-6. Description: Inhibition of R848-induced IL-6 release in human PBMCs, IL-6 ELISA. Format: cell-based. Particulars: compound 24 hours, then R848 10 µg/mL 5 hours. On the procedure:
Example 3: Detection of inhibition of R848-induced IL-6 release
Cryopreserved human PBMCs (Milestone® Biotechnologies, PB010C-W) were thawed and resuspended in RPMI-1640 medium (Gibco, 22400-105) supplemented with 10% fetal bovine serum (Gibco, 10099-141), 100 U/mL penicillin, and 100 µg/mL streptomycin (Gibco, 15140122). Subsequently, 190 µL of the PBMC suspension was added to each well of 96-well clear cell culture plates (Corning, 3599) to achieve a density of 1×10^5 cells/well. The cell plates were incubated at 37°C in a 5% CO2 incubator for 30 minutes. Then, 5 µL of diluted compound solution was added to the corresponding cell-seeded wells to achieve final concentrations ranging from 0.046 to 3,000 nM. The final concentration of DMSO was 0.1%. After the compound-treated cell plate was incubated at 37°C in a 5% CO2 incubator for 24 hours, 5 µL of R848 (MCE, HY-13740) was added to achieve a final concentration of 10 µg/mL. The cell plates were incubated again at 37°C in a 5% CO2 incubator for 5 hours, then centrifuged at 1,000 rpm for 1 minute. 100 µL of the cell supernatant from each well was transferred to a new 96-well clear cell culture plate for IL-6 concentration testing.
Interleukin-6 (IL-6) ELISA assay
The IL-6 concentration in the supernatant of R848-induced human PBMCs was determined using a Human IL-6 (interleukin-6) ELISA KIT (4Bio, CHE0009-048). IL-6 standard solutions at different concentrations, ranging from 3.9 to 250 pg/mL, were prepared according to the manufacturer's instructions. 100 µL of each concentration of the IL-6 standard solution and the pre-diluted test cell supernatant samples were added separately to anti-IL-6 antibody-coated and blocked clear 96-well plates, followed by incubation at 37°C for 1.5 hours. According to the product instructions, the plates were washed, 100 µL of biotinylated antibody was added, and the plates were incubated at 37°C for 1 hour. The plates were washed, 100 µL of enzyme conjugate working solution was added. The plates were incubated at 37°C for 30 minutes, and then washed. 100 µL of chromogenic substrate was added, and the plates were incubated at 37°C for 10-20 minutes. The reaction was terminated by adding 100 µL of stop solution. After the reaction, the OD value at 450 nm was measured in absorbance mode using an Envision microplate reader (PerkinElmer). A standard curve was plotted using the corrected OD values of the various concentrations of IL-6 standard solutions. The IL-6 concentration in each cell supernatant was then determined on the basis of the corresponding concentration for the corrected OD value of the test sample on the standard curve. […] Subsequently, the IC50 value of the compound was calculated by performing non-linear curve fitting of concentration versus inhibition rate using GraphPad Prism 9.
Background: ELISA stands for enzyme-linked immunosorbent assay.

Consider `COc1ccc(C(=O)N2CCC(CCN3CCN(c4ccc(N5C=C(NC(=O)c6cccc(C(F)(F)F)n6)C(=C=O)N5)cc4)CC3)C2)cc1N1CCC(=O)NC1=O` (stereo not drawn) [Compound A183, N-(3-carbonyl-1-(4-(4-(2-(1-(3-(2,4-dioxotetrahydropyrimidin-1(2H)-yl)-4-methoxybenzoyl)pyrrolidin-3-yl)ethyl)piperazin-1-yl)phenyl)-1H-pyrazol-4-yl)-6-(trifluoromethyl)picolinamide], for which, on IRAK4, the DC50 is less than 100 nM and the Dmax was greater than 60%. For the same compound, in the assay on IL-6 (PBMC), the IC50 is less than 10 nM.

The compound `NC(=O)c1nn(-c2ccc(N3CCN(CC4CCN(c5ccc(C(=O)NC6CCC(=O)NC6=O)cc5)CC4)CC3)cc2)cc1NC(=O)c1cccc(C(F)(F)F)n1` (stereo not drawn) [Compound A171] displayed an IC50 in the assay on IL-6 (PBMC) of 10 to 30 nM.

For the compound `NC(=O)c1nn(-c2ccc(N3CCN(CCC4CCN(c5cccc(NC6CCC(=O)NC6=O)c5)CC4)CC3)cc2)cc1NC(=O)c1cccc(C(F)(F)F)n1` (stereo not drawn) [Compound A196], on IRAK4, the DC50 is less than 100 nM and the greatest degradation seen (Dmax) is greater than 60%. In the assay with IL-6 (PBMC), the IC50 was less than 10 nM.

In the case of `NC(=O)c1nn(-c2ccc(N3CCN(CC4CCN(c5ccc6c(c5)C(=O)N(C5CCC(=O)NC5=O)C6=O)CC4)CC3)cc2)cc1NC(=O)c1cccc(C(F)(F)F)n1` (stereo not drawn) [Compound A122], on IRAK4, the DC50 was less than 100 nM and the Dmax is greater than 60%. For the same compound, the IC50 with IL-6 (PBMC) was less than 10 nM.

For `NC(=O)c1nn(-c2ccc(CN3CCC4(CC3)CCN(c3ccc5c(c3)C(=O)N(C3CCC(=O)NC3=O)C5=O)CC4)cc2)cc1NC(=O)c1cccc(C(F)(F)F)n1` (stereo not drawn) [Compound A222, N-(3-carbamoyl-1-(4-((9-(2-(2,6-dioxopiperidin-3-yl)-1,3-dioxoisoindolin-5-yl)-3,9-diazaspiro[5.5]undecan-3-yl)methyl)phenyl)-1H-pyrazol-4-yl)-6-(trifluoromethyl)picolinamide], the IC50 with IL-6 (PBMC) lay in the range of 10 to 30 nM.

For the compound `NC(=O)c1nn(-c2ccc(CN3CCC4(CC3)CN(c3ccc5c(c3)C(=O)N(C3CCC(=O)NC3=O)C5=O)C4)cc2)cc1NC(=O)c1cccc(C(F)(F)F)n1` (stereo not drawn) [Compound A224, N-(3-carbamoyl-1-(4-((2-(2-(2,6-dioxopiperidin-3-yl)-1,3-dioxoisoindolin-5-yl)-2,7-diazaspiro[3.5]nonan-7-yl)methyl)phenyl)-1H-pyrazol-4-yl)-6-(trifluoromethyl)picolinamide], at IRAK4, the DC50 fell in the range of 100 to 1000 nM and the greatest degradation seen (Dmax) was greater than 60%. In addition, the IC50 in the assay with IL-6 (PBMC) was 10 to 30 nM.

In the case of `Cn1c(=O)n(C2CCC(=O)NC2=O)c2cccc(N3CCC4(CCN(C(=O)c5ccc(-n6cc(NC(=O)c7cccc(C(F)(F)F)n7)c(C(N)=O)n6)cc5)C4)CC3)c21` (stereo not drawn) [Compound A135], on IRAK4, the DC50 was less than 100 nM and the Dmax is greater than 60%. Besides, in the assay on IL-6 (PBMC), the IC50 was less than 10 nM.

In the assay on IL-6, “N-(3-carbamoyl-1-(4-((1-(3-(2,4-dioxotetrahydropyrimidin-1(2H)-yl)-4-methoxybenzoyl)piperidin-4-yl)methyl)piperazin-1-yl)phenyl)-1H-pyrazol-4-yl)-6-(trifluoromethyl)picolinamide [Compound A175]” gave an IC50 of less than 10 nM.

Regarding `NC(=O)c1nn(-c2ccc(N3CCN(CC4CCN(c5ccc(N6CCC(=O)NC6=O)cc5)CC4)CC3)cc2)cc1NC(=O)c1cccc(C(F)(F)F)n1` [Compound A192, N-(3-carbamoyl-1-(4-((1-(4-(2,4-dioxotetrahydropyrimidin-1(2H)-yl)phenyl)piperidin-4-yl)methyl)piperazin-1-ylphenyl)-1H-pyrazol-4-yl)-6-(trifluoromethyl)picolinamide], the IC50 in the assay with IL-6 (PBMC) fell in the range of 10 to 30 nM.

Consider `Cn1c(=O)n(C2CCC(=O)NC2=O)c2cccc(N3CCC(CCN4CCN(c5ccc(-n6cc(NC(=O)c7cccc(C(F)(F)F)n7)c(C(N)=O)n6)cc5)CC4)CC3)c21` (stereo not drawn) [Compound A182, N-(3-carbamoyl-1-(4-(4-(2-(1-(1-(2,6-dioxopiperidin-3-yl)-3-methyl-2-oxo-2,3-dihydro-1H-benzo[d]imidazol-4-yl)piperidin-4-yl)ethyl)piperazin-1-yl)phenyl)-1H-pyrazol-4-yl)-6-(trifluoromethyl)picolinamide], for which, at IRAK4, the DC50 was less than 100 nM and the Dmax was greater than 60%. In addition, the IC50 in the assay with IL-6 (PBMC) is less than 10 nM.

As for `Cn1c(=O)n(C2CCC(=O)NC2=O)c2cccc(N3CCN(CCN4CCN(c5ccc(N6C=C(NC(=O)c7cccc(C(F)(F)F)n7)C(=C=O)N6)cc5)CC4)CC3)c21` (stereo not drawn) [Compound A180, N-(3-carbonyl-1-(4-(4-(2-(4-(1-(2,6-dioxopiperidin-3-yl)-3-methyl-2-oxo-2,3-dihydro-1H-benzo[d]imidazol-4-yl)piperazin-1-yl)ethyl)piperazin-1-yl)phenyl)-1H-pyrazol-4-yl)-6-(trifluoromethyl)picolinamide], on IRAK4, the DC50 was less than 100 nM and the Dmax was greater than 60%. In the assay on IL-6 (PBMC), this compound showed an IC50 of less than 10 nM.

In the assay with IL-6 (PBMC), `NC(=O)c1nn(-c2ccc(N3CCN(CCC4CCN(c5ccc(NC6CCC(=O)NC6=O)cc5F)CC4)CC3)cc2)cc1NC(=O)c1cccc(C(F)(F)F)n1` (stereo not drawn) [Compound A194, N-(3-Carbonyl-1-(4-(4-(2-(4-(((2,6-dioxopiperidin-3-yl)amino)-2-fluorophenyl)piperidin-4-yl)ethyl)piperazin-1-yl)phenyl)-1H-pyrazol-4-yl)-6-(trifluoromethyl)picolinamide] gave an IC50 of less than 10 nM.

Consider `NC(=O)c1nn(-c2ccc(N3CCN(CC4CCN(c5cccc(NC6CCC(=O)NC6=O)c5)CC4)CC3)cc2)cc1NC(=O)c1cccc(C(F)(F)F)n1` (stereo not drawn) [Compound A197], for which, on IRAK4, the DC50 is less than 100 nM and the Dmax is greater than 60%. The same compound had an IC50 in the assay with IL-6 (PBMC) of 10 to 30 nM.

`NC(=O)c1nn(-c2ccc(N3CCC(NCC4CCN(c5ccc6c(c5)C(=O)N(C5CCC(=O)NC5=O)C6=O)C4)CC3)cc2)cc1NC(=O)c1cccc(C(F)(F)F)n1` (stereo not drawn) [Compound A228]: on IRAK4, the 50% degradation concentration (DC50) was less than 100 nM and the Dmax was greater than 60%. For the same compound, in the assay on IL-6 (PBMC), the IC50 is less than 10 nM.

Turning to `COc1ccc(C(=O)N2CCC(CCN3CCN(c4ccc(-n5cc(NC(=O)c6cccc(C(F)(F)F)n6)c(C(F)F)n5)cc4)CC3)CC2)cc1N1CCC(=O)NC1=O` [Compound A148], on IRAK4, the half-maximal degradation concentration (DC50) is 100 to 1000 nM and the Dmax is greater than 60%. In the assay with IL-6 (PBMC), this compound showed an IC50 of 10 to 30 nM.

Regarding `NC(=O)c1nn(-c2ccc(N3CCN(CC4CCN(c5ccc6c(c5)C(=O)N(C5CCC(=O)NC5=O)C6=O)C4)CC3)cc2)cc1NC(=O)c1cccc(C(F)(F)F)n1` (stereo not drawn) [Compound A227], at IRAK4, the DC50 is less than 100 nM and the Dmax is greater than 60%. The compound further registered an IC50 in the assay with IL-6 (PBMC) of less than 10 nM.

In the case of `Cn1c(=O)n(C2CCC(=O)NC2=O)c2cccc(N3CCC4(CC3)CC(NCc3ccc(-n5cc(NC(=O)c6cccc(C(F)(F)F)n6)c(C(N)=O)n5)cc3)C4)c21` (stereo not drawn) [Compound A137], at IRAK4, the DC50 is less than 100 nM and the Dmax is greater than 60%. Further, the IC50 in the assay on IL-6 (PBMC) was less than 10 nM.

Turning to `COc1ccc(C(=O)N2CCC(CCN3CCN(c4ccc(-n5cc(NC(=O)c6cccc(C(F)(F)F)n6)c(C(N)=O)n5)cc4)CC3)C(F)(F)C2)cc1N1CCC(=O)NC1=O` (stereo not drawn) [Compound A168], the IC50 in the assay with IL-6 (PBMC) was less than 10 nM.

On to `COc1ccc(C(=O)N2CCN(CCN3CCN(c4ccc(-n5cc(NC(=O)c6cccc(C(F)(F)F)n6)c(C(N)=O)n5)cc4)CC3)CC2)cc1N1CCC(=O)NC1=O` [Compound A143], for which, on IRAK4, the DC50 was less than 100 nM and the Dmax was greater than 60%. Moreover, the IC50 with IL-6 (PBMC) is less than 10 nM.
